Measurements taken from patent publication US20200222372A1 (Ovid Therapeutics Inc., priority 2017, published 2020).

How the values were obtained:
[1] = human, in vivo
onset of REM sleep = experiment: Delay of onset of REM sleep after falling asleep in narcoleptic patient; format: in vivo, human (narcoleptic patient); conditions: 0.5 mg to 25 mg gaboxadol or salt
Method: As mentioned above, people with narcolepsy frequently abnormally enter REM sleep within 15 minutes of falling asleep. […] Without wishing to be bound by any theory, symptoms associated with narcolepsy such as cataplexy, sleep paralysis, hallucinations, and automatic behaviors closely mimic the natural physiologic response that occurs during REM sleep. By inducing a more normal REM sleep architecture in narcoleptic patients, symptoms associated with narcolepsy are reduced or alleviated. […] In embodiments, the delay of onset of REM sleep is about 30 minutes or longer. In embodiments, the delay of onset of REM sleep is about 45 minutes or longer. In embodiments, the delay of onset of REM sleep is about 60 minutes or longer. In embodiments, the delay of onset of REM sleep is about 75 minutes or longer.

Oc1noc2c1CCNC2 [gaboxadol, 4,5,6,7-tetrahydroisoxazolo [5,4-c] pyridine-3-ol]
CL for 10 mg IV (in CL/F row) [1]: 438 mL/min
onset of REM sleep after falling asleep (onset of REM sleep): ≥ 30 min
